{"source": "patent US20250108023A1", "about": "“Products for Masking Bitterness” (The Third People's Hospital of Henan Province, priority 2023, published 2025)", "key": {"TRPM5": {"molecular_target": "T1, TRPM5 (Mus musculus, UniProt Q9JJH7)", "T1 construct": "host or cells: mouse taste cells", "T1 sequence (Q9JJH7 1-1158)": "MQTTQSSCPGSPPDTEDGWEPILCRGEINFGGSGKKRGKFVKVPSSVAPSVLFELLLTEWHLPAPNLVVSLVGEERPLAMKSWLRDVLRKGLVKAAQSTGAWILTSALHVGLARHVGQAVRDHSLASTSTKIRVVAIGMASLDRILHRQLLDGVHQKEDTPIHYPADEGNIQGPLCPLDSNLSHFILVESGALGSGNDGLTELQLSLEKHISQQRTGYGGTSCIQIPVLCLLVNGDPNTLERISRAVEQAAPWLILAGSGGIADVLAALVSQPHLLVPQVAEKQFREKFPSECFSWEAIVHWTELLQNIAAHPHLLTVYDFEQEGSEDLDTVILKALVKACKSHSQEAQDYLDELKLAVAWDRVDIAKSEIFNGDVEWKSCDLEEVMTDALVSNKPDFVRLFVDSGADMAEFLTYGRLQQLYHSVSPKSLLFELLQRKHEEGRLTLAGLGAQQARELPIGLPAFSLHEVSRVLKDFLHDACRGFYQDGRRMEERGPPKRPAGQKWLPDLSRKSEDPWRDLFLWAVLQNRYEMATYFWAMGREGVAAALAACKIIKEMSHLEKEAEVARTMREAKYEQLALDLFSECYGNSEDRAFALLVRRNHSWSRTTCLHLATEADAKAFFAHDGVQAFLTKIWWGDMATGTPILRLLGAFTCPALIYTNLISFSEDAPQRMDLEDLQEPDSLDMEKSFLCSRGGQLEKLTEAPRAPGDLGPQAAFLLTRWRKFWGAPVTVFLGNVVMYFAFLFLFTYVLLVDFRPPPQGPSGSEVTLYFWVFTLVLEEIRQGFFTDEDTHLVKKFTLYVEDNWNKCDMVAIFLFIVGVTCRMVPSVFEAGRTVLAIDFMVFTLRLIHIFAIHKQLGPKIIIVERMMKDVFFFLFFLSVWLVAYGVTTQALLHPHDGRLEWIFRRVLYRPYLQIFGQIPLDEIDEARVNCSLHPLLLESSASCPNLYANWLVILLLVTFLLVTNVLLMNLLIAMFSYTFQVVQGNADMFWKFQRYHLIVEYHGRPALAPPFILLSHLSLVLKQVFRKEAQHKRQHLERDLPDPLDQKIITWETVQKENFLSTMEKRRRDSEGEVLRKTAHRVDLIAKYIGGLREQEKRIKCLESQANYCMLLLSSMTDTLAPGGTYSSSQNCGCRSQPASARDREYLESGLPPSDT", "details": "TPPO 5 μM; cited from earlier work"}, "[1]": {"molecular_target": "T2, sodium ion channel of Trpm5 bitter receptor (Mus musculus, UniProt Q9JJH7)", "T2 construct": "Put the removed tongue in a 2 ml EP tube, add 1-1.5 ml of 0.25% trypsin solution; from tissue; host or cells: cells dissociated with trypsin from mouse tongue", "T2 sequence (Q9JJH7 1-1158)": "T1 sequence (Q9JJH7 1-1158)", "test": "Immunofluorescence experiment of sodium ion channels in mouse tongue cells stimulated with bitter agent", "format": "cell-based, mice", "method": "The mouse was killed by dislocation, and the tongue was removed (minimizing tongue bleeding), disinfected with alcohol for 2 minutes (adding sodium citrate for anticoagulation), and washed with D-Hanks solution or rinsed with 10 ml of saline solution drawn by a syringe.\nTake out the centrifuge tube from the constant temperature incubator, shake for 2 minutes, blow the undigested tongue several times with the gun tip, take out the tongue, cover it with the EP tube cap, put it in a centrifuge, centrifuge at 3000 rpm for 3 minutes, discard the supernatant, add cell culture medium (containing 10% inactivated serum), blow and disperse the cells, and place it in a 37° C. constant temperature incubator for 30 min to allow the cells to recover.\n(1) Take out the prepared ENG-2 AM storage solution and warm it to room temperature for use, keeping it away from light. The concentration of the pre-prepared stock solution is 2 mM and it is stored at −18° C. for future use.\n(2) Dilute the ENG-2 AM+DMSO stock solution to a […] working solution using serum-free culture medium.\n(3) Load the probe in a serum-free culture medium containing an appropriate concentration of AM probe.\nTake out the cells from the incubator, centrifuge, and discard the culture medium. Wash the cells once with D-Hanks solution, centrifuge, and discard the culture medium. Add 1 ml of culture medium again, then add 300 ul of sodium ion probe dilution solution, blow and disperse the cells, and incubate the cells at room temperature or 37° C. for 1 hour.\nAt the end of incubation, centrifuge at 100 rpm for 2 minutes, discard the supernatant, add 500 ul of cell culture medium without AM probe, blow and disperse the cells, and incubate for 20-60 min to ensure that the cells completely deesterify the AM group.\n(4) Take 10 ul of incubation solution and drop it into the center of the cell counting plate, cover it with a slide, and observe it under a fluorescence microscope.\n(5) Use a low-power microscope to find the cells, open the fluorescence path, detect the fluorescence signal with a fluorescence microscope, change to a high-power microscope, find the appropriate observation cells, observe and take pictures to record the initial signal.\n(2) Experimental drugs: Add 5 ul of the tested drug to one side of the cover glass on the cell counting plate, use absorbent paper to absorb water on the opposite side, let the solution soak the cells, and then use a fluorescence microscope to observe and take 3-5 photos, one every 1-2 minutes; then add 5 ul of the standard bitter drug to one side of the cover glass on the cell counting plate, use absorbent paper to absorb water on the opposite side, let the solution soak the cells, and then use a fluorescence microscope to observe and take 3-5 photos, one every 1-2 minutes.\n(5) Data analysis: Use Image J-Fiji software to analyze the images, compare the average values of the fluorescence pixels, remove the base number and compare them in the table, draw FIGS. 4-6, and use SPSS18.0 to perform chi-square tests to compare the differences between the data groups."}, "[2]": {"details": "Bitterant 60 s (2% metronidazole solution)"}, "[3]": {"details": "Bitterant 120 s (2% metronidazole solution)"}, "[4]": {"details": "Bitterant 180 s (2% metronidazole solution)"}}}
{"compound": "O=P(c1ccccc1)(c1ccccc1)c1ccccc1", "note": "[Triphenylphosphine oxide, reference compound]", "values": [{"measurement": "remaining taste-evoked Na^+ responses", "setting": "TRPM5", "value": "abolished"}, {"measurement": "average value of fluorescence brightness", "setting": "[1]; Addition of drugs", "value": 88.789}, {"measurement": "average value of fluorescence brightness, base number removed", "setting": "[1]; Addition of drugs", "value": "−0.243"}, {"measurement": "average value of fluorescence brightness", "setting": "[1]; [2]", "value": 88.608}, {"measurement": "average value of fluorescence brightness, base number removed", "setting": "[1]; [2]", "value": "−0.308"}, {"measurement": "average value of fluorescence brightness", "setting": "[1]; [3]", "value": 88.598}, {"measurement": "average value of fluorescence brightness, base number removed", "setting": "[1]; [3]", "value": "−1.322"}, {"measurement": "average value of fluorescence brightness", "setting": "[1]; [4]", "value": 88.583}, {"measurement": "average value of fluorescence brightness, base number removed", "setting": "[1]; [4]", "value": "−1.384"}, {"measurement": "average value of fluorescence brightness, base number removed", "setting": "[1]; Initial", "value": 0}, {"measurement": "average value of fluorescence brightness", "setting": "[1]; Initial (before addition of drug), sodium ion dye ENG-2 AM", "value": 88.898}, {"measurement": "blocking effect on the sodium ion channel (result analysis in words)", "setting": "[1]; judged from change of sodium ion fluorescence after bitter drug", "value": "sodium ion channel is blocked"}]}
